The record followed here is patent US20260166045A1, “COMBINATION THERAPY COMPRISING GSPT1-DIRECTED MOLECULAR GLUE DEGRADERS AND PI3K/AKT/mTOR PATHWAY INHIBITORS” (Monte Rosa Therapeutics, Inc., priority 2022, published 2026).

One test relates to MCF7 xenografts. Nature of the test: MCF7 cell-derived xenograft (CDX) in vivo combination study. Details: species or system BALB/c nude mice. The note with it: compound 1-1 10 mg/kg. The method, then: […] (0.36 mg) pellets (Innovative Research of America Cat. No.: SE-121, pellet size: 3.0 mm) were implanted 2-3 days before cell inoculation.
(§1) Compound 1-1 was formulated every day freshly as a solution in 5% DMSO/95% (30% w/v HPβCD in water). This formulation was also used as vehicle control. Everolimus was formulated as a suspension in 1% MC (400 cps), which was prepared every 3 days.
(§2) Body weights were measured at the same time.
An approximation of drug interactions was made using the method described by Clarke (Clarke et al. 1997. Breast Cancer Res Treat. 46(2-3):255-78). This was applied to […] and can estimate interactions from limited data. In short, for compound A, B, or the combination AB (with control group C), antagonism is predicted when (AB)/C>(A/C)×(B/C), an additive effect is predicted when (AB)/C=(A/C)×(B/C), and synergistic interaction is predicted to occur when (AB)/C<(A/C)×(B/C). Calculations in Table 10B indicate that the interaction of everolimus and compound 1-1 in the MCF7 CDX model is synergistic.
17β-Estradiol (0.36 mg) pellets (Innovative Research of America Cat. No.: SE-121, pellet size: 3.0 mm) were implanted 2-3 days before cell inoculation.
(§3) Compound 1-1 was formulated every day freshly as a solution in 5% DMSO/95% (30% w/v HPβCD in water). This formulation was also used as vehicle control. Alpelisib was formulated as a solution in 20% captisol+80% water (pH adjusted to 4), which was prepared every week.

The subject of another test is CAL51 xenografts. The test can be described thus: CAL51 cell-derived xenograft (CDX) in vivo combination study. Details: species or system SCID Beige mice. The settings on record: compound 1-1 3 mg/kg. On the procedure: as §1, §2, §3
For another test, the system named is NCI-H1836 cell line. The test can be described thus: CTG viability, 11x11 concentration matrix, Loewe synergy (SCLC). The settings on record: inhibitor combined with compound 1-1, 11x11 matrix, 72 hours.
A further test concerns NCI-H1876 cell line. Described as above. The settings on record: inhibitor combined with compound 1-1, 11x11 matrix, 72 hours.
A further test concerns NCI-H209 cell line. Described as above. The settings on record: inhibitor combined with compound 1-1, 11x11 matrix, 72 hours.
A further test deals with NCI-H526 cell line. The test is described as above. The settings on record: inhibitor combined with compound 1-1, 11x11 matrix, 72 hours.
The subject of a further test is NCI-H69 cell line. The description is as above. The note with it: inhibitor combined with compound 1-1, 11x11 matrix, 72 hours.
The subject of another test is DOHH-2 cell line. Nature of the test: CTG viability, 11x11 concentration matrix, Loewe synergy (lymphoma). The settings on record: inhibitor combined with compound 1-1, 11x11 matrix, 72 hours.
For the next test, the system named is DB cell line. Described as above. The note with it: inhibitor combined with compound 1-1, 11x11 matrix, 72 hours.
The subject of the next test is WSU-DLCL2 cell line. Described as above. The note with it: inhibitor combined with compound 1-1, 11x11 matrix, 72 hours.
A further test concerns RAJI cell line. The description is as above. The settings on record: inhibitor combined with compound 1-1, 11x11 matrix, 72 hours.
Another test concerns SU-DHL-6 cell line. The description is as above. The settings on record: inhibitor combined with compound 1-1, 11x11 matrix, 72 hours.
The subject of another test is MM.1S cell line. The test can be described thus: CTG viability, 11x11 concentration matrix, Loewe synergy (multiple myeloma). The note with it: inhibitor combined with compound 1-1, 11x11 matrix, 72 hours.
In a further test the test system is OPM-2 cell line. The test is described as above. The settings on record: inhibitor combined with compound 1-1, 11x11 matrix, 72 hours.
Another test concerns U266B1 cell line. The description is as above. The note with it: inhibitor combined with compound 1-1, 11x11 matrix, 72 hours.
A further test deals with RPMI 8226 cell line. The test is described as above. The note with it: inhibitor combined with compound 1-1, 11x11 matrix, 72 hours.
In the next test the test system is KMS-34 cell line. Described as above. The settings on record: inhibitor combined with compound 1-1, 11x11 matrix, 72 hours.

Method for DB cell line: (§4) Cells were cultured in the media recommended by the supplier.
(§5) On the day before compound addition, cells were seeded in 384-well-plates (white with clear flat bottom) at the densities indicated in Table 6 in 40 μL of growth medium. The next day, compounds were dispensed from 10 mM stocks using a HP D300 dispenser according to the concentration matrices described above. For each cell line, the compound concentration matrices were dispensed twice as side-by-side duplicates on one 384-well-plate. In addition, each plate contained 14 wells with only growth medium and 44 wells with cells treated with DMSO alone to calculate the average background and maximal signals, respectively. The final DMSO concentration was normalized to 0.2% across the plates. Plates were then incubated for 72 hours. CellTiter-Glo® Luminescent Cell Viability Assay (CTG, Promega G7570) reagent was prepared according to the manufacturer's instructions. Plates were equilibrated to room temperature for approximately 30 minutes, 25 μL CTG reagent was added to each well and plates were mixed on an orbital shaker for 10 minutes to allow for cell lysis. After further incubation for 20 minutes at room temperature, the clear bottoms of the plates were pasted with white back seal and luminescence was read on an EnVision plate reader (measurement time 0.1 seconds).
Method for DOHH-2 cell line: as §4, §5
Method for KMS-34 cell line: as §4, §5
Method for MM.1S cell line: as §4, §5
Method for NCI-H1836 cell line: as §4, §5
Method for NCI-H1876 cell line: as §4, §5
Method for NCI-H209 cell line: as §4, §5
Method for NCI-H526 cell line: as §4, §5
Method for NCI-H69 cell line: as §4, §5
Method for OPM-2 cell line: as §4, §5
Method for RAJI cell line: as §4, §5
Method for RPMI 8226 cell line: as §4, §5
Method for SU-DHL-6 cell line: as §4, §5
Method for U266B1 cell line: as §4, §5
Method for WSU-DLCL2 cell line: as §4, §5

With `Cc1nc(NC(=O)N2CCC[C@H]2C(N)=O)sc1-c1ccnc(C(C)(C)C(F)(F)F)c1` [Alpelisib, (2S)-1-N-[4-methyl-5-[2-(1,1,1-trifluoro-2-methylpropan-2-yl)pyridin-4-yl]-1,3-thiazol-2-yl]pyrrolidine-1,2-dicarboxamide], in the test on MCF7 xenografts (day 28, ANOVA with post hoc Tukey's test, alpelisib 50 mg/kg, p.o. qd), the “anti-tumor effect compared to vehicle” value is on record as “significant anti-tumor effect”. In addition, the “Δ TV ratio to vehicle group (A/C, B/C, (AB)/C)” value in the test on MCF7 xenografts (day 28, Clarke method, alpelisib 50 mg/kg, p.o. qd) turned out to be 0.15; in the test with CAL51 xenografts (day 21, Clarke method, alpelisib 20 mg/kg, p.o. qd), 0.76. For the same compound, the “Δ TV (delta tumor volume)” value with MCF7 xenografts (day 28, alpelisib 50 mg/kg, combination 50 + 10 mg/kg, p.o. qd for 28 days, average of four tumors) was 91 mm^3; in the test on CAL51 xenografts (day 21, alpelisib 20 mg/kg, combination 20 + 3 mg/kg, p.o. qd for 21 days, average of four tumors), 425 mm3. For the same compound, the “antitumor effect vs vehicle (tumor volume)” value in the test on CAL51 xenografts (day 21, ANOVA with post hoc Tukey's test, alpelisib 20 mg/kg, p.o. qd) is listed as “neither alpelisib nor compound 1-1 produced a statistically significant antitumor effect”. Moreover, the “Mean Loewe synergy score, NCI-H1836” value with NCI-H1836 cell line was 1.69. In the test on NCI-H1876 cell line, the “Mean Loewe synergy score, NCI-H1876” value was determined as 1.64. Besides, the “Mean Loewe synergy score, NCI-H209” value in the test with NCI-H209 cell line is recorded as 1.49. In addition, the “Mean Loewe synergy score, NCI-H526” value with NCI-H526 cell line is recorded as 3.7. Besides, the “Mean Loewe synergy score, NCI-H69” value in the test on NCI-H69 cell line is on record as 5.05. Besides, the “Mean Loewe synergy score, DOHH2” value with DOHH-2 cell line came out at 1.59. Further, the “Mean Loewe synergy score, DB” value in the test with DB cell line is recorded as −2.27. Moreover, in the test with WSU-DLCL2 cell line, the “Mean Loewe synergy score, WSU-DLCL2” value is on record as −2.69. Moreover, in the test on RAJI cell line, the “Mean Loewe synergy score, RAJI” value turned out to be 2.05. Besides, the “Mean Loewe synergy score, SUDHL6” value in the test on SU-DHL-6 cell line is −6.28. In addition, in the test with MM.1S cell line, the “Mean Loewe synergy score, MM.1S” value was 3.44. For the same compound, in the test with OPM-2 cell line, the “Mean Loewe synergy score, OPM-2” value was −2.51. In the test on U266B1 cell line, the “Mean Loewe synergy score, U266B1” value came out at 0.13. Moreover, the “Mean Loewe synergy score, RPMI 8226” value in the test on RPMI 8226 cell line came out at 0.9. The “Mean Loewe synergy score, KMS-34” value in the test on KMS-34 cell line turned out to be 7.85.

For `NC1(C(=O)N[C@@H](CCO)c2ccc(Cl)cc2)CCN(c2ncnc3[nH]ccc23)CC1` [Capivasertib, 4-amino-N-[(1S)-1-(4-chlorophenyl)-3-hydroxypropyl]-1-(7H-pyrrolo[2,3-d]pyrimidin-4-yl)piperidine-4-carboxamide], in the test on NCI-H1836 cell line, the “Mean Loewe synergy score, NCI-H1836” value was determined as 1.9. Further, the “Mean Loewe synergy score, NCI-H1876” value with NCI-H1876 cell line is 0.7. The “Mean Loewe synergy score, NCI-H209” value with NCI-H209 cell line is 0.85. Further, in the test with NCI-H526 cell line, the “Mean Loewe synergy score, NCI-H526” value is recorded as 4.3. The “Mean Loewe synergy score, NCI-H69” value in the test with NCI-H69 cell line stood at 7.38. For the same compound, the “Mean Loewe synergy score, DOHH2” value in the test with DOHH-2 cell line is given as 2.89. In the test on DB cell line, the “Mean Loewe synergy score, DB” value is on record as 0.29. Further, the “Mean Loewe synergy score, WSU-DLCL2” value in the test with WSU-DLCL2 cell line turned out to be 0.95. Moreover, in the test with RAJI cell line, the “Mean Loewe synergy score, RAJI” value is listed as 2.97. Further, the “Mean Loewe synergy score, SUDHL6” value in the test on SU-DHL-6 cell line is given as −1.92. Moreover, the “Mean Loewe synergy score, MM.1S” value in the test with MM.1S cell line worked out at 2.63. Further, the “Mean Loewe synergy score, OPM-2” value in the test on OPM-2 cell line was −1. Further, the “Mean Loewe synergy score, U266B1” value with U266B1 cell line turned out to be 1.76. Also, in the test with RPMI 8226 cell line, the “Mean Loewe synergy score, RPMI 8226” value turned out to be 4.81. Moreover, in the test with KMS-34 cell line, the “Mean Loewe synergy score, KMS-34” value is given as 7.48.

`Nc1cc(C(F)(F)F)c(-c2cc(N3CCOCC3)nc(N3CCOCC3)n2)cn1` [buparlisib, 5-(2,6-dimorpholin-4-ylpyrimidin-4-yl)-4-(trifluoromethyl)pyridin-2-amine]: the “Mean Loewe synergy score, NCI-H1836” value in the test with NCI-H1836 cell line worked out at 1.64. For the same compound, the “Mean Loewe synergy score, NCI-H1876” value in the test with NCI-H1876 cell line worked out at 0.017. The “Mean Loewe synergy score, NCI-H209” value with NCI-H209 cell line is reported as 0.78. In the test on NCI-H526 cell line, the “Mean Loewe synergy score, NCI-H526” value is given as −0.21. Moreover, the “Mean Loewe synergy score, NCI-H69” value with NCI-H69 cell line stood at 4.09. Besides, in the test on DOHH-2 cell line, the “Mean Loewe synergy score, DOHH2” value came to 1.11. The “Mean Loewe synergy score, DB” value in the test with DB cell line is reported as 1.26. For the same compound, the “Mean Loewe synergy score, WSU-DLCL2” value in the test on WSU-DLCL2 cell line is given as −3.1. In the test with RAJI cell line, the “Mean Loewe synergy score, RAJI” value came to 1.34. Moreover, in the test on SU-DHL-6 cell line, the “Mean Loewe synergy score, SUDHL6” value is −2.5. In the test with MM.1S cell line, the “Mean Loewe synergy score, MM.1S” value amounted to 1.48. The “Mean Loewe synergy score, OPM-2” value in the test with OPM-2 cell line is listed as −1.38. Also, in the test on U266B1 cell line, the “Mean Loewe synergy score, U266B1” value is on record as −0.19. Also, in the test with RPMI 8226 cell line, the “Mean Loewe synergy score, RPMI 8226” value is reported as 3.57. Moreover, the “Mean Loewe synergy score, KMS-34” value in the test on KMS-34 cell line turned out to be 5.94.
